Experimental findings from patent publication US20090029975A1, “1,3-BENZOTHIAZINONE DERIVATIVE AND USE THEREOF” (TAKEDA PHARMACEUTICAL COMPANY LIMITED, priority 2005, published 2009) are described below.

Molecules are shown by their SMILES.

For one series, the target named is T1, human PPARα (Homo sapiens, UniProt Q07869).
T1 construct: expressed in transfected cells; host or cells: COS-1 cells
T1 sequence (Q07869 1-468): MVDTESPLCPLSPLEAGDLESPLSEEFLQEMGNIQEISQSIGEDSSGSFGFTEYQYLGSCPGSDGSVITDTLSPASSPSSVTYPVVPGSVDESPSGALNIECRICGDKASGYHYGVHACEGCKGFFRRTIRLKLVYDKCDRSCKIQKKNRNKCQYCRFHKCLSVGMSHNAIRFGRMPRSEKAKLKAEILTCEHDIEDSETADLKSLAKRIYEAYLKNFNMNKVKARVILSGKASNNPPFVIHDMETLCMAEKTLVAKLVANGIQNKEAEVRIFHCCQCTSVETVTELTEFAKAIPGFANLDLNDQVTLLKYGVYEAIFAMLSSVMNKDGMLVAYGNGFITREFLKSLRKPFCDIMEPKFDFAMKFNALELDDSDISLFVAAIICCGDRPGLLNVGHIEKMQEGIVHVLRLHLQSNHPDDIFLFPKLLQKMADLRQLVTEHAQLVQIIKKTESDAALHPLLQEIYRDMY
T1 sequence (P19793 1-462 partner): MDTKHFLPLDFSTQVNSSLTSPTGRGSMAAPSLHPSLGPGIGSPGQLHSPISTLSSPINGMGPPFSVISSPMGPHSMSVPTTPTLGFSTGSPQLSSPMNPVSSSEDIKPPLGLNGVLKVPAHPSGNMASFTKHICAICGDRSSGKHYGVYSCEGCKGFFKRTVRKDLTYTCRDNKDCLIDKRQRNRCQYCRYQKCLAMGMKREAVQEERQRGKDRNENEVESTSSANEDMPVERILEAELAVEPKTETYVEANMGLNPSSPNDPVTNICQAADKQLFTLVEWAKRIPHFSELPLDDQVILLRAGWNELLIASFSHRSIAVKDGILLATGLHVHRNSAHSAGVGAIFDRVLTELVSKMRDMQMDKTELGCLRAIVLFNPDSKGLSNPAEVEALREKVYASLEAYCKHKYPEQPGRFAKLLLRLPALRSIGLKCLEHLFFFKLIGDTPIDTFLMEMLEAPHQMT
The series can be described thus: PPARα assay: PPRE-dependent transcriptional activation activity (luciferase reporter in COS-1 cells transfected with PPARα and RXRα). It is filed as cell-based. Particulars: COS-1 cells transfected with PPARα and RXRα expression vectors and pGL3-PPRE4-Tk; about 42 hours incubation with compound; compound-free group = 100%. As for the experimental part:
COS-1 cells were suspended in Dulbecco's Modified Eagle Medium (10% FBS, D-MEM) supplemented with 10% heat-inactivated fetal calf serum to 1×10^5 cells/ml and a 25 ml aliquot was seeded on a 75 cm^2 cell culture flask, followed by incubation in 5% CO2 at 37° C. for about 15 hours. PPARα expression vector pMCMV-neo-rPPARα and RXRα expression vector pMCMV-neo-rRXRα, in which human PPARα gene and human RXRα gene were inserted into pMCMV-neo (manufactured by Promega Corp.) respectively, and Luciferase reporter vector pGL3-PPRE4-Tk, in which four PPREs (aggacaaaggtca; SEQ ID NO: 2) were inserted into pGL3-Promoter Vector (manufactured by Promega Corp.) in tandem, were transfected to the cells using FuGENE6 (Transfection reagent: manufactured by Roche), and then incubation for about 24 hours. After completion of the incubation, the cells were recovered and suspended in 0.1% bovine serum albumin (Sigma)-containing D-MEM to 5×10^4 cells/ml. A 100 μl aliquot was seeded on each well of a 96-well plate, followed by incubation in 5% CO2 at 37° C. for about 4 hours. Next, D-MEM containing a test compound (compound obtained in EXAMPLE 2, 8, 10 or 12) was added thereto, followed by incubation in 5% CO2 at 37° C. for about 42 hours. After completion of the incubation, a 801 aliquot was added to each well of Steady-Glo Reagent (manufactured by Promega Corp.). After allowing to stand for 30 minutes at room temperature, fluorescence levels by luciferase were determined using a WALLAC ARVO SX (manufactured by Perkin-Elmer). Taking the emitted luminescence of test compound-free group as 100%, the PPRE-dependent transcriptional activation was shown in terms of the concentration of test compound, which caused to emit the luminescence of 200% (EC200: μM).

For series [1], the system named is ARE of rat glutathione S-transferase Ya subunit gene. In words: Assay for ARE-dependent transcriptional activation activity (luciferase reporter pGL3-ARE in rat H9c2 cells). Type of series: cell-based. Particulars: rat H9c2 cells transfected with pGL3-ARE; about 24 hours incubation with compound; compound-free group = 100%. As to the method:
Rat H9c2 cells were suspended in Dulbecco's Modified Eagle Medium (10% FBS, D-MEM) supplemented with 5% heat-inactivated fetal calf serum to 7×10^4 cells/ml and a 18 ml aliquot was seeded on a Petri dish for cell culture, followed by incubation in 5% CO2 at 37° C. for about 16 hours. ARE ([…]; SEQ ID NO: 1) of rat glutathione S-transferase Ya subunit gene was incorporated into pGL3-Promoter Vector (manufactured by Promega Corp.) and the resulting luciferase reporter vector pGL3-ARE was transfected to the cells using FuGENE6 (Transfection reagent: manufactured by Roche), followed by additional incubation for about 7 hours. After completion of the incubation, the cells were recovered and suspended in 10% FBS-containing D-MEM to 1×10^5 cells/ml. A 100 μl aliquot was seeded on each well of a 96-well plate, followed by incubation in 5% CO2 at 37° C. for about 17 hours. Next, the cells were washed with D-MEM to remove serum, and D-MEM containing a test compound (compound obtained in EXAMPLE 2, 8, 10, 12, 22 or 23) was added to the cells, followed by incubation in 5% CO2 at 37° C. for about 24 hours. After completion of the incubation, 801 each of Steady-Glo Reagent (manufactured by Promega Corp.) was added to each well. After allowing to stand at room temperature for 40 minutes, fluorescence levels by luciferase were determined using a WALLAC ARVO SX (manufactured by Perkin-Elmer). Taking the emitted luminescence of test compound-free group as 100%, the ARE-dependent transcriptional activation was shown in terms of the concentration of test compound, which caused to emit the luminescence of 200% (EC200: μM).
On the technique in general: A reporter such as luciferase makes a cellular process visible.

As to `Cc1ccc2c(=O)nc(-c3cc(S(C)(=O)=O)cc(CCC(=O)OC(C)(C)C)n3)sc2c1` [compound 11, Tert-butyl 3-[6-(7-methyl-4-oxo-4H-1,3-benzothiazin-2-yl)-4-(methylsulfonyl)pyridin-2-yl]propanoate], the melting point (as a rule, the temperature, or range, at which the solid turns liquid) lay in the range of 178 to 178.4 °C. The molecule `CS(=O)(=O)c1cc(CCC(=O)OCC(O)CO)nc(-c2nc(=O)c3ccc(Cl)cc3s2)c1` (stereo not shown) [compound 21, 2,3-Dihydroxypropyl 3-[6-(7-chloro-4-oxo-4H-1,3-benzothiazin-2-yl)-4-(methylsulfonyl)pyridin-2-yl]propanoate] returned a melting point of 240 to 241 °C. For the molecule `Cc1ccc2c(=O)nc(-c3cc(S(C)(=O)=O)cc(CCC(=O)O)n3)sc2c1` [EXAMPLE 12, 3-[6-(7-Methyl-4-oxo-4H-1,3-benzothiazin-2-yl)-4-(methylsulfonyl)pyridin-2-yl]propanoic acid], the melting point fell in the range of 238.9 to 239.1 °C. Also, on human PPARα, the “EC200 (concentration of test compound causing luminescence of 200% of the test compound-free group), PPRE-dependent transcriptional activation” value was over 100 µM. Moreover, the “EC200 (concentration of test compound causing luminescence of 200% of the test compound-free group), ARE-dependent transcriptional activation” value in series [1] is 1.6 µM. In the case of `CCCOC(=O)CCc1cc(S(C)(=O)=O)cc(-c2nc(=O)c3ccc(Cl)cc3s2)n1` [compound 19, Propyl 3-[6-(7-chloro-4-oxo-4H-1,3-benzothiazin-2-yl)-4-(methylsulfonyl)pyridin-2-yl]propanoate], the melting point lay within 235.4 to 235.5 °C. Still for that read-out and setting: under `CC(C)(C)OC(=O)CCc1cc(S(C)(=O)=O)cc(-c2nc(=O)c3ccc(Cl)cc3s2)n1` [compound 7, Tert-butyl 3-[6-(7-chloro-4-oxo-4H-1,3-benzothiazin-2-yl)-4-(methylsulfonyl)pyridin-2-yl]propanoate] stands 184.3 to 184.5 °C. Molecule `CS(=O)(=O)c1cc(CCC(=O)O)nc(-c2nc(=O)c3ccc(Cl)cc3s2)c1` [EXAMPLE 8, 3-[6-(7-Chloro-4-oxo-4H-1,3-benzothiazin-2-yl)-4-(methylsulfonyl)pyridin-2-yl]propanoic acid] gave a melting point of 228.8 to 228.9 °C. In addition, the “EC200 (concentration of test compound causing luminescence of 200% of the test compound-free group), PPRE-dependent transcriptional activation” value on human PPARα is over 100 µM. Moreover, the “EC200 (concentration of test compound causing luminescence of 200% of the test compound-free group), ARE-dependent transcriptional activation” value in series [1] came out at 0.94 µM.

Regarding `CC(C)(C)OC(=O)CCc1cc(S(C)(=O)=O)cc(-c2nc(=O)c3ccc(F)cc3s2)n1` [compound 9, Tert-butyl 3-[6-(7-fluoro-4-oxo-4H-1,3-benzothiazin-2-yl)-4-(methylsulfonyl)pyridin-2-yl]propanoate], the melting point was 177.6 to 178 °C. As to `CCN(CC)C(=O)COC(=O)CCc1cc(S(C)(=O)=O)cc(-c2nc(=O)c3ccc(Cl)cc3s2)n1` [EXAMPLE 23, 2-(Diethylamino)-2-oxoethyl 3-[6-(7-chloro-4-oxo-4H-1,3-benzothiazin-2-yl)-4-(methylsulfonyl)pyridin-2-yl]propanoate], the “EC200 (concentration of test compound causing luminescence of 200% of the test compound-free group), ARE-dependent transcriptional activation” value in series [1] stood at 0.6 µM. Take `Cc1oc(=O)oc1COC(=O)CCc1cc(S(C)(=O)=O)cc(-c2nc(=O)c3ccc(Cl)cc3s2)n1` [compound 20, (5-Methyl-2-oxo-1,3-dioxolen-4-yl)methyl 3-[6-(7-chloro-4-oxo-4H-1,3-benzothiazin-2-yl)-4-(methylsulfonyl)pyridin-2-yl]propanoate]: the melting point lay within 183.1 to 183.2 °C. The molecule `CCN(CC)CCOC(=O)CCc1cc(S(C)(=O)=O)cc(-c2nc(=O)c3ccc(Cl)cc3s2)n1` [EXAMPLE 22, 2-(Diethylamino)ethyl 3-[6-(7-chloro-4-oxo-4H-1,3-benzothiazin-2-yl)-4-(methylsulfonyl)pyridin-2-yl]propanoate] registered a melting point of 150.5 to 151.5 °C. Further, in series [1], the “EC200 (concentration of test compound causing luminescence of 200% of the test compound-free group), ARE-dependent transcriptional activation” value is 0.61 µM.

`CS(=O)(=O)c1cc(CCC(=O)O)nc(-c2nc(=O)c3ccc(F)cc3s2)c1` [EXAMPLE 10, 3-[6-(7-fluoro-4-oxo-4H-1,3-benzothiazin-2-yl)-4-(methylsulfonyl)pyridin-2-yl]propanoic acid] yielded a melting point of 235.8 to 236.2 °C. In addition, the “EC200 (concentration of test compound causing luminescence of 200% of the test compound-free group), PPRE-dependent transcriptional activation” value at human PPARα was over 100 µM. Moreover, in series [1], the “EC200 (concentration of test compound causing luminescence of 200% of the test compound-free group), ARE-dependent transcriptional activation” value came out at 1.7 µM. Consider `CS(=O)(=O)c1cc(CCC(=O)O)nc(-c2nc(=O)c3ccccc3s2)c1` [EXAMPLE 2, 3-[6-(4-Oxo-4H-1,3-benzothiazin-2-yl)-4-(methylsulfonyl)pyridin-2-yl]propanoic acid], for which the “EC200 (concentration of test compound causing luminescence of 200% of the test compound-free group), PPRE-dependent transcriptional activation” value at human PPARα was over 100 µM. Further, the “EC200 (concentration of test compound causing luminescence of 200% of the test compound-free group), ARE-dependent transcriptional activation” value in series [1] worked out at 1.3 µM. For `COC(=O)CCc1cc(S(C)(=O)=O)cc(-c2nc(=O)c3ccc(Cl)cc3s2)n1` [EXAMPLE 17, Methyl 3-[6-(7-chloro-4-oxo-4H-1,3-benzothiazin-2-yl)-4-(methylsulfonyl)pyridin-2-yl]propanoate], the melting point was in the range of 203.4 to 203.6 °C. Still for that read-out and setting: under `CCOC(=O)CCc1cc(S(C)(=O)=O)cc(-c2nc(=O)c3ccc(Cl)cc3s2)n1` [EXAMPLE 13, Ethyl 3-[6-(7-chloro-4-oxo-4H-1,3-benzothiazin-2-yl)-4-(methylsulfonyl)pyridin-2-yl]propanoate] stands 240 to 240.2 °C.
